Measured values: patent US7872047B2, “Esters of long-chain alcohols and preparation thereof” (Eastman Chemical Company, priority 2008, dated 2011)

Assay: Oxidative Stability Index (OSI) accelerated oxidation test in simple skin lipid model
Conditions: for onset of lipid oxidation over the untreated control (antioxidant effect): 1% idebenone, 1% or 2% idebenone linoleate in SLMM, p<0.01; for Avg. OSI (stdev) Hours at 80° C.: air bubbled, induction period, triplicate; for Calculated OSI Hours at 35° C.: estimated for 35° C. (skin surface temperature) with instrument software
Source text: Oxidation of skin lipids can contribute to an aged appearance and other undesirable effects on skin condition. A simple skin lipid model (based on fatty acids found in skin) can be used to evaluate and predict the topical effectiveness of different compounds to inhibit skin lipid oxidation and improve the condition of skin (Narayanan, S.: Hunerbein, A.: Getie, M.; Jackel, A.; Neubert, R. H. Scavenging properties of metronidazole on free oxygen radicals in a skin lipid model system. J Pharm Pharmacol. 2007 August;59(8):1125-30).
Lipid oxidation can be measured by a number of analytical methods. An accelerated oxidation test such as the Oxidative Stability Index (OSI) is accepted as a method for determining both oxidative stability of lipids as well as antioxidant effectiveness (Bartee, S. D.; Kim, H. J.; Min, D. B. Effects of antioxidants on the oxidative stability of oils containing arachidonic, docosapentaaenoic and docosahexaenoic acids. J Amer Oil Chem Soc 2007 84: 363-68.; Official methods and recommended practices of the AOCS, 5th Edition, AOCS 1998).
In this example, the OSI method was used to assess the antioxidant activity of idebenone esters by measuring their ability to inhibit lipid oxidation in a mixture of fatty acids that are present in skin lipids. The composition of the simple skin lipid model tested is 74% linoleic acid; 21% oleic acid; 4% linolenic acid. The simple skin lipid model includes a large proportion of polyunsaturated and unsaturated fatty acids, which are prone to oxidation.
The untreated sample was composed of the simple skin lipid model (fatty acid mixture). The treated samples were prepared by dissolving the test materials in the simple skin lipid model at 1 or 2 wt % at room temperature. The treated and untreated lipid matrices were oxidized by heating the test solutions to 80° C. and bubbling air through the samples. The OSI (induction period in hours) was determined using an Oxidative Stability Instrument (Omnion, Inc. Rockville Md.) and the method of Bartee et al., 2007. Untreated and treated samples were tested in triplicate, and the average and standard deviation are included in Table 1. The OSI (induction period in hours) was also estimated for oxidation at 35° C. (simulating skin surface temperature) using the software supplied with the instrument.

Row | SMILES | onset of lipid oxidation over the untreated control (antioxidant effect) | Avg. OSI (stdev) Hours at 80° C. (1 wt % test material in SLMM) | Calculated OSI Hours at 35° C. (1 wt % test material in SLMM) | Avg. OSI (stdev) Hours at 80° C. (2 wt % test material in SLMM) | Calculated OSI Hours at 35° C. (2 wt % test material in SLMM)
1 | COC1=C(OC)C(=O)C(CCCCCCCCCCO)=C(C)C1=O [idebenone, Idebenone, reference compound] | significantly delayed the onset of lipid oxidation | 2.77 (0.14) Hours | 62.3 h | – | –
2 | CCCCC/C=C\C/C=C\CCCCCCCC(=O)OCCCCCCCCCCC1=C(C)C(=O)C(OC)=C(OC)C1=O [idebenone linoleate, Idebenone Linoleate] | significantly delayed the onset of lipid oxidation | 2.50 (0.54) Hours | 56.2 h | 3.22 (0.67) Hours | 72.4 h
